In patent publication US5183896A, “Derivatives of 1,2,5,6-tetrahydropyridin-3-carboxaldehyde oxime” (Roussel Uclaf, priority 1990, dated 1993):
Where two headings read alike, the source gives them in different places.

Experiments:
Solubility = type: physicochemical; settings: for solubility in water: H2O
[1] = test system: male mice (CD1 Charles Rivers); experiment: Duration of hypothermic action: variations in body temperature; type: in vivo, mouse; settings: 180 min
[2] = test system: male mice (CD1 Charles Rivers); experiment: Hypothermic activity: dose reducing body temperature by 1° C.; type: in vivo; settings: Mus musculus, read-out: Effective dose (-1° C.)
Experimental: (§1) The test is carried out on male mice (CD1 Charles Rivers) weighing 25 to 30 g, which have gone without food for 6 hours.
(§2) The body temperature is noted using a thermocouple placed about […] inside the rectum and connected to an electrical temperature recorder.
(§3) The products are administered by oral or sub-cutaneous route and the temperatures are noted at 0 and 30 minutes, 1 hour, 2 hours and 2 and a half hours after treatment.
(§4) The degree of hypothermia is evaluated as the difference between the treated animals and the control animals and the dose necessary to reduce the body temperature by 1° C. is determined.

[3] = test system: isolated ileum of a guinea pig; experiment: Test of the isolated ileum of a guinea pig (agonist contraction); settings: Cavia porcellus, Tyrode solution, 37° C., read-out: pD2 (negative logarithm of the dose which produces 50% of the maximum effect) (converted)
Experimental: 1Test of the isolated ileum of a guinea pig
Ileum fragments are removed from a guinea-pig killed by decapitation. The isolated ileum is placed in 10 cm^3 of Tyrode solution at 37° C. and aerated by a mixture of oxygen (95%) and carbon dioxide (5%). Contractions caused by the products are recorded using a sensor connected to a polygraph. The products under test are added, at concentrations comprised between 1.10^-3 M and 1.10^-8 M/1.
The products showing a contracturating effect are tested relative to atropine and hexamethonium in order to establish whether the activity is of "muscarinic" or "nicotinic" type.
The agonist activity is expressed in pD2 (negative logarithm of the dose which produces 50% of the maximum effect).

[4] = test system: male mice (CD1 Charles Rivers); experiment: Duration of hypothermic action: variations in body temperature; type: in vivo, mouse
Experimental: as §1, §2, §3, §4
The duration of action of the products is determined by using doses which can reduce the temperature by 1.5° C. to 1.7° C.

[5] = test system: male mice (CD1 Charles Rivers); experiment: Diarrheic activity, oral; type: in vivo, mouse
Experimental: The test is carried out on male mice (CD1 Charles Rivers) weighing 25 to 30 g, which have gone without food for 6 hours. The product dissolved at 5% in methocel is administered by oral route, using a probang.
The control animals receive only the excipient.
After treatment, the animals are put separately in cages. The bottoms of the cages are covered with blotting paper and are observed at 30, 60, 120 and 180 minute intervals.
The absorbent sheets of paper are changed after each observation.
The consistency of the faeces is evaluated according to the method of Randall and Baruth (Arch. Int. Pharmacodyn. 220, 94, 1976) by following the scale of the following values:
1: slightly soft feces with or without moist ring,
2: slightly soft feces with presence of a well-defined moist circle,
3: soft feces with presence of a large moist circle,
4 feces without consistency with presence of a very large moist circle.
For each product, the dose was noted which caused diarrhoea in 50% of the animals according to the method of Miller and Tainter (Proc. Soc. Exp. Biol. Med., 57 261, 1944).

[6] = test system: central cholinergic system; settings: cited from earlier work
[7] = test system: patients who have a memory deficiency; settings: intravenous route; cited from earlier work
[8] = Acute toxicity, oral, mortality over 7 days; settings: mouse, in vivo, male mice
Experimental: The test is carried out on male mice (CD1 Charles Rivers) weighing 22 to 24 g, which have gone without food for 16 hours. […] The mortality is noted over the 7 days following the treatment.

solubility in 2N HCl (Solubility)	solubility in 2N NaOH (Solubility)	solubility in water (Solubility)	SMILES	ED (-1 C body temperature) ([2]; SC route) [mg/kg]	ED (-1 C body temperature) ([2]; oral route) [mg/kg]	EC50 [3] [nM]	DE50 (dose which caused diarrhoea in 50% of the animals) [5] [mg/kg]	further results
insoluble	insoluble	insoluble	CON=CC1=CCCN(C(=O)OCC(=O)N2CCCCC2)C1 [Example 4, (1-piperidinylcarbonyl)-methyl 3-(methoxyiminomethyl)-1,2,5,6-tetrahydropyridine-1-carboxylate]					
soluble	insoluble	soluble	CON=CC1=CCCN(C(=O)OCC(=O)N2CCN(C)CC2)C1 [Example 5, (4 methyl-1-piperazinyl)-carbonylmethyl 3-(methoxyiminomethyl)-1,2,5,6-tetrahydropyridine-1-carboxylate]					

Further lines, the molecule ahead of its results:

SMILES	solubility in 2N HCl (Solubility)	solubility in 2N NaOH (Solubility)	solubility in water (Solubility)	ED (-1 C body temperature) ([2]; SC route) [mg/kg]	ED (-1 C body temperature) ([2]; oral route) [mg/kg]	EC50 [3] [nM]	DE50 (dose which caused diarrhoea in 50% of the animals) [5] [mg/kg]	further results
CCN(CC)C(=O)COC(=O)N1CCC=C(C=NOC)C1 [Example 2, (diethylaminocarbonyl) methyl 3-(methoxyiminomethyl)-1,2,5,6-tetrahydropyridine-1-carboxylate]	insoluble	insoluble	insoluble					
COC(=O)C1=CCCN(C)C1 [Arecoline, HBr, reference compound]				3	190	126	35	Variation in body temperature ([1]; 3.5 mg/kg, sc): +0.2 °C; Variation in body temperature ([4]; 3.5 mg/kg, sc, 0 min): -0.1 °C; Variation in body temperature ([4]; 3.5 mg/kg, sc, 30 min): -1.5 °C; Variation in body temperature ([4]; 3.5 mg/kg, sc, 60 min): -0.1 °C; Variation in body temperature ([4]; 3.5 mg/kg, sc, 120 min): +0.2 °C
COC(=O)C1=CCCN(C)C1 [arecoline]								duration of action ([6]; in vivo): short-term action; activity by oral route ([6]; oral route): very weak activity by oral route; effect on patients who have a memory deficiency [7]: positive effect
C=CCN(CC=C)C(=O)COC(=O)N1CCC=C(C=NOC)C1 [Example 3, (di(2-propenyl)-aminocarbon-yl)-methyl 3-(methoxyiminomethyl)-1,2,5,6-tetrahydropyridine-1-carboxylate]	insoluble	insoluble	insoluble	8	9	> 100000	> 50	Variation in body temperature ([1]; 15 mg/kg, os): +0.1 °C; LD50 at 168 h [8]: 500 mg/kg; Variation in body temperature ([4]; 12 mg/kg, sc, 30 min): -0.9 °C; Variation in body temperature ([4]; 12 mg/kg, sc, 60 min): -1.6 °C; Variation in body temperature ([4]; 12 mg/kg, sc, 120 min): -0.6 °C; Variation in body temperature ([4]; 15 mg/kg, os, 0 min): +0.1 °C; Variation in body temperature ([4]; 15 mg/kg, os, 30 min): -1.3 °C; Variation in body temperature ([4]; 15 mg/kg, os, 60 min): -1.7 °C; Variation in body temperature ([4]; 15 mg/kg, os, 120 min): -0.5 °C
